This is an account of results in patent US20090016956A1, “Labeled Macrophages and Methods of Use Thereof” (priority 2007, published 2009).

This assay deals with reverse cholesterol transport pathway (RCTP). Put plainly: modulation of the reverse cholesterol transport pathway (RCTP); modified in vivo assay (MIVA), release of labeled cholesterol from loaded cells. The conditions noted are these: general statement in the description; the data are only in FIGS. 1-8, values not given. As to the method: In another embodiment, the invention includes a method of loading of cells, (e.g., macrophages in culture) with labeled cholesterol, e.g., radiolabeled cholesterol, by exposing the cells to autologous red cell membrane fragments which have been equilibrated with labeled cholesterol. The exposed cells phagocytose the red cell membrane fragments and internalize and store the labeled cholesterol becoming, in effect, foam cells. These ‘loaded’ cells are then administered, e.g., intraveneously injected, into a subject and allowed to distribute throughout the subject and settle within its organs (e.g., heart, lung, kidney, liver). A base level of cholesterol release is observed. After an appropriate length of time, the subject is treated with the test agent, or compound of interest and the release of label (e.g., labeled cholesterol) is measured and/or monitored as a function of time, dose, or dosing regimen. The appropriate length of time may be approximately twenty four hours, although it may also be longer or shorter, if so desired.
Stimulation of cholesterol release from the introduced loaded cells results in a transient increase in the amount of circulating label over baseline. Measurement of the kinetics of label release is carried out by direct analysis of samples of circulating whole blood, plasma, serum, feces, urine, saliva and/or cerebral spinal fluid. […]

Turning to `CCCCCCCCCC[Si](C)(C)CCC(=O)NC(Cc1ccc(C)cc1)c1ccccc1` (stereo not shown) [Sandoz 58-035], the “effectiveness in modulation of the RCTP” value is on record as “effective in modulation of the RCTP”.
